The record followed here is patent publication US20230108906A1, “SUBSTITUTED BICYCLIC AND TRICYCLIC UREAS AND AMIDES, ANALOGUES THEREOF, AND METHODS USING SAME” (Arbutus Biopharma Corporation, priority 2019, published 2023).

A word on the EC50: it is the concentration at which the effect is half-maximal.

One test concerns HBV rcDNA in HepDE19 cells. The test can be described thus: HepDE19 assay with bDNA quantitation of HBV rcDNA. Format: cell-based, hepatitis B virus (HBV). As to conditions: Hepatitis B virus, HepDE19, 168 h, inhibition of rcDNA formation in HepDE19 cells (HepG2 derived), Tet-free medium, 7 day incubation, Quantigene 2.0 bDNA readout, top concentration 25 μM; read-out: DE-19bDNA EC50. The procedure, abridged:
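Cytotoxicity run on replicate plates (5,000 cells/well, 4 days, ATP luminescence, CC50), while antiviral plates (50,000 cells/well) received compound for 7 days after tetracycline withdrawal to induce HBV replication. Top dose 25 μM, 8 points, 0.5% DMSO; rcDNA by branched-DNA assay, % inhibition fitted (4-parameter) for EC50 and EC90.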
Consider `CN(C(=O)Nc1ccc(F)c(Cl)c1)[C@@H]1COCc2nc(OCCN)c3cc(F)c(F)cc3c21` [Compound 258, (S)-1-(6-(2-Aminoethoxy)-8,9-difluoro-1,4-dihydro-2H-pyrano[3,4-c]isoquinolin-1-yl)-3-(3-chloro-4-fluorophenyl)-1-methylurea], for which the EC50 was 65 nM.
With `CN(C(=O)Nc1cc(F)cc(Cl)c1)C1COCc2[nH]c(=O)c3ccccc3c21` (stereo not drawn) [Compound 29, 3-(3-Chloro-5-fluorophenyl)-1-methyl-1-(6-oxo-1,4,5,6-tetrahydro-2H-pyrano[3,4-c]isoquinolin-1-yl)urea], the EC50 is 120 nM.
As to `CN(C(=O)Nc1ccc(O)c(Cl)c1)[C@@H]1COCc2[nH]c(=O)c3cc(F)c(F)cc3c21` [Compound 148, (S)-3-(3-Chloro-4-hydroxyphenyl)-1-(8,9-difluoro-6-oxo-1,4,5,6-tetrahydro-2H-pyrano[3,4-c]isoquinolin-1-yl)-1-methylurea], the EC50 was determined as 760 nM.
On to `CN(C(=O)Nc1ccc(F)c(Cl)c1)C1CCCc2[nH]c(=O)cc(C(F)(F)F)c21` (stereo not drawn) [Compound 2, 3-(3-Chloro-4-fluorophenyl)-1-methyl-1-(2-oxo-4-(trifluoromethyl)-1,2,5,6,7,8-hexahydroquinolin-5-yl)urea], for which the EC50 amounted to 1500 nM.
Same read-out and setting: with `CCN(C(=O)Nc1ccc(F)c(C)c1)C1COCc2[nH]c(=O)c3ccc(F)cc3c21` (stereo not drawn) [Compound 76, 1-Ethyl-3-(4-fluoro-3-methylphenyl)-1-(9-fluoro-6-oxo-1,4,5,6-tetrahydro-2H-pyrano[3,4-c]isoquinolin-1-yl)urea] the figure was 10 nM; with `CN(C(=O)Nc1ccc(F)c(Cl)c1)C1CS(=O)(=O)Cc2[nH]c(=O)c3cc(F)ccc3c21` (single isomer, unassigned) [Compound 197, 3-(3-Chloro-4-fluorophenyl)-1-(8-fluoro-3,3-dioxido-6-oxo-1,4,5,6-tetrahydro-2H-thiopyrano[3,4-c]isoquinolin-1-yl)-1-methylurea], 2300 nM.
Consider `CN(C(=O)Nc1ccc(F)c(Cl)c1)C1COCc2[nH]c(=O)c3ccccc3c21` (racemic) [Compound 18, 3-(3-Chloro-4-fluorophenyl)-1-methyl-1-(6-oxo-1,4,5,6-tetrahydro-2H-pyrano[3,4-c]isoquinolin-1-yl)urea], for which the EC50 is 30 nM.
Consider `CN(C(=O)Nc1ccc(F)c(C#N)c1)C1CS(=O)(=O)Cc2[nH]c(=O)c3cc(F)c(F)cc3c21` (single isomer, unassigned) [Compound 205, 3-(3-Cyano-4-fluorophenyl)-1-(8,9-difluoro-3,3-dioxido-6-oxo-1,4,5,6-tetrahydro-2H-thiopyrano[3,4-c]isoquinolin-1-yl)-1-methylurea], for which the EC50 was found to be 7200 nM.
With `CN1Cc2[nH]c(=O)c3cc(F)c(F)cc3c2C(N(C)C(=O)Nc2ccc(F)c(C#N)c2)C1` (stereo not drawn) [Compound 173, 3-(3-Cyano-4-fluorophenyl)-1-(8,9-difluoro-3-methyl-6-oxo-1,2,3,4,5,6-hexahydrobenzo[c][1,7]naphthyridin-1-yl)-1-methylurea], the EC50 is 13000 nM.
As to `Cc1cc(NC(=O)N(C)C2COCc3[nH]c(=O)c4cc(Cl)ccc4c32)ccc1F` (stereo not drawn) [Compound 58, 1-(8-Chloro-6-oxo-1,4,5,6-tetrahydro-2H-pyrano[3,4-c]isoquinolin-1-yl)-3-(4-fluoro-3-methylphenyl)-1-methylurea], the EC50 is 40 nM.
On the same count and under the same terms, with `CN(C(=O)Nc1cc(F)c(F)c(F)c1)C1CCCc2[nH]c(=O)c3cc(F)ccc3c21` (stereo not drawn) [Compound 33, 1-(8-Fluoro-6-oxo-1,2,3,4,5,6-hexahydrophenanthridin-1-yl)-1-methyl-3-(3,4,5-trifluorophenyl)urea] the figure was 100 nM.

The test is the same for the next values; noted with them: inhibition of rcDNA formation in HepDE19 cells (HepG2 derived), Tet-free medium, 7 day incubation, Quantigene 2.0 bDNA readout, top concentration 25 μM; read-out: DE-19bDNA EC50.
For the compound `CN(C(=O)Nc1ccc(F)c(Cl)c1)C1COCc2nc(NCCO)c3cc(F)c(F)cc3c21` (single isomer, unassigned) [Compound 246, 3-(3-Chloro-4-fluorophenyl)-1-(8,9-difluoro-6-((2-hydroxyethyl)amino)-1,4-dihydro-2H-pyrano[3,4-c]isoquinolin-1-yl)-1-methylurea], the EC50 worked out at 20 nM.
The same measure, in the same setting: for `CN(C(=O)Nc1ccc(F)c(Cl)c1)C1COCc2[nH]c(=O)c3ccccc3c21` (single isomer, unassigned) [Compound 36, 3-(3-Chloro-4-fluorophenyl)-1-methyl-1-(6-oxo-1,4,5,6-tetrahydro-2H-pyrano[3,4-c]isoquinolin-1-yl)urea] the value was 4600 nM; for `CN1Cc2[nH]c(=O)c3cc(F)ccc3c2C(N(C)C(=O)Nc2ccc(F)c(Cl)c2)C1` (single isomer, unassigned) [Compound 155, 3-(3-Chloro-4-fluorophenyl)-1-(8-fluoro-3-methyl-6-oxo-1,2,3,4,5,6-hexahydrobenzo[c][1,7]naphthyridin-1-yl)-1-methylurea], 9200 nM.
On to `CN(C(=O)Nc1ccc(F)c(Cl)c1)C1CN(CCO)Cc2[nH]c(=O)c3cc(F)ccc3c21` (single isomer, unassigned) [Compound 169, 3-(3-Chloro-4-fluorophenyl)-1-(8-fluoro-3-(2-hydroxyethyl)-6-oxo-1,2,3,4,5,6-hexahydrobenzo[c][1,7]naphthyridin-1-yl)-1-methylurea], for which the EC50 stood at 6600 nM.
For the compound `CC(C)CN(C(=O)Nc1ccc(F)c(C#N)c1)C1COCc2[nH]c(=O)c3cc(F)ccc3c21` (single isomer, unassigned) [Compound 116, 3-(3-Cyano-4-fluorophenyl)-1-(8-fluoro-6-oxo-1,4,5,6-tetrahydro-2H-pyrano[3,4-c]isoquinolin-1-yl)-1-isobutylurea], the EC50 turned out to be 230 nM.
Take `CN(C(=O)Nc1ccc(F)c(Cl)c1)C1COCc2nc(NCCO)c3cc(F)c(F)cc3c21` (single isomer, unassigned) [Compound 245, 3-(3-Chloro-4-fluorophenyl)-1-(8,9-difluoro-6-((2-hydroxyethyl)amino)-1,4-dihydro-2H-pyrano[3,4-c]isoquinolin-1-yl)-1-methylurea]: the EC50 is 4200 nM.
On to `CC(=O)N1Cc2[nH]c(=O)c3cc(F)c(F)cc3c2C(N(C)C(=O)Nc2ccc(F)c(Cl)c2)C1` (single isomer, unassigned) [Compound 160, 1-(3-Acetyl-8,9-difluoro-6-oxo-1,2,3,4,5,6-hexahydrobenzo[c][1,7]naphthyridin-1-yl)-3-(3-chloro-4-fluorophenyl)-1-methylurea], for which the EC50 was 820 nM.
Regarding `CN(C(=O)Nc1ccc(F)c(F)c1)C1COCc2[nH]c(=O)c3cc(F)c(F)cc3c21` (single isomer, unassigned) [Compound 117, 1-(8,9-Difluoro-6-oxo-1,4,5,6-tetrahydro-2H-pyrano[3,4-c]isoquinolin-1-yl)-3-(3,4-difluorophenyl)-1-methylurea], the EC50 is 2700 nM.
With `CN(C(=O)Nc1ccc(F)c(Cl)c1)C1C[S+]([O-])Cc2[nH]c(=O)c3cc(F)ccc3c21` (single isomer, unassigned) [Compound 195], the EC50 came to 900 nM.

The test is the same for the next values; noted with them: read-out: DE-19bDNA EC50; inhibition of rcDNA formation in HepDE19 cells (HepG2 derived), Tet-free medium, 7 day incubation, Quantigene 2.0 bDNA readout, top concentration 25 μM.
For the compound `CN(C(=O)Nc1ccccc1)C1COCc2[nH]c(=O)c3cc(F)c(F)cc3c21` (single isomer, unassigned) [Compound 101, 1-(8,9-Difluoro-6-oxo-1,4,5,6-tetrahydro-2H-pyrano[3,4-c]isoquinolin-1-yl)-1-methyl-3-phenylurea], the EC50 came out at 4700 nM.
